# Data: patent publication US10870638B2, “Pyridazinone compound or its salt, and herbicide containing it” (ISHIHARA SANGYO KAISHA, LTD., priority 2016, dated 2020)
# Key:
# Assay type in all cases: in vivo
# Settings in all cases: 14th day after application
# [1] = test system: barnyardgrass (Echinochloa crus-qalli L.); test: Test Example 1: foliar treatment, growth inhibition rate on 14th day
# How it was run: (§1)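 Visual 0–100% inhibition scoring (100 = complete kill) at 14 days after foliar treatment of soil-grown seedlings at species-specific leaf stages, with the compound sprayed as a wettable powder or emulsifiable concentrate dilution.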
# corn (Zea mays L.) [2] = test: as above
# How it was run: as §1
# [3] = test system: crabgrass (Digitaria sanquinalis L.); test: as above
# How it was run: as §1
# [4] = test system: green foxtail (Setaria viridis L.); test: as above
# How it was run: (§2)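 Plants in upland soil were sprayed on the foliage at early leaf stages (wild oat 0.4–1.2, rice 0.2–2.7, green foxtail 0.5–3.2, soybean primary leaf) with wettable powder or emulsifiable concentrate formulations. Spray volume was 1,000 L/ha water containing 0.1 vol% spreader, at prescribed active-ingredient rates. Growth inhibition (0 = untreated, 100 = complete kill) was scored visually on day 14.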
# [5] = test system: italian ryegrass (Lolium multiflorum Lam.); test: as above
# How it was run: as §1
# [6] = test system: redroot pigweed (Amaranthus retroflexus L.); test: as above
# How it was run: as §1
# rice (Oryza sativa L.) [7] = test: as above
# How it was run: as §2
# [8] = test system: soybean (Glycine max Merr.); test: as above
# How it was run: as §2
# [9] = test system: wheat (Triticum aestivum L.); test: as above
# How it was run: as §1
# [10] = test system: wild oat (Avena fatua L.); test: as above
# How it was run: as §2
# [11] = test system: barnyardgrass (Echinochloa crus-qalli L.); test: Test Example 2: soil application on the day after sowing, growth inhibition rate on 14th day
# How it was run: (§3)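 Pre-emergence soil spray on upland soil the day after sowing; wettable powder or emulsifiable concentrate diluted in water at 1,000 L/ha, dosed to prescribed active-ingredient amounts. Visual growth inhibition scored 14 days after application, 0 (untreated-equivalent) to 100 (complete kill).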
# corn (Zea mays L.) [12] = test: as above
# How it was run: as §3
# [13] = test system: crabgrass (Digitaris sanquinalis L.); test: as above
# How it was run: as §3
# [14] = test system: green foxtail (Setaria viridis L.); test: as above
# How it was run: as §3
# [15] = test system: prickly sida (Sida spinosa L.); test: as above
# How it was run: as §3
# [16] = test system: redroot pigweed (Amaranthus retroflexus L.); test: as above
# How it was run: as §3
# rice (Oryza sativa L.) [17] = test: as above
# How it was run: as §3
# [18] = test system: soybean (Glycine max Merr.); test: as above
# How it was run: as §3
# [19] = test system: velvetleaf (Abutilon theophrasti MEDIC.); test: as above
# How it was run: as §3
# [20] = test system: wheat (Triticum aestivum L.); test: as above
# How it was run: as §3
# [21] = active ingredient amount 31 g/ha
# [22] = active ingredient amount 500 g/ha
SMILES,"Growth inhibition rate (%) Barnyardgrass [1, 21]",Growth inhibition rate (%) Corn (corn (Zea mays L.) [2]; [21]),"Growth inhibition rate (%) Crabgrass [3, 21]","Growth inhibition rate (%) Green foxtail [4, 21]","Growth inhibition rate (%) Italian ryegrass [5, 21]","Growth inhibition rate (%) Redroot pigweed [6, 21]",Growth inhibition rate (%) Rice (rice (Oryza sativa L.) [7]; [21]),"Growth inhibition rate (%) Soybean [8, 21]","Growth inhibition rate (%) Wheat [9, 21]","Growth inhibition rate (%) Wild oat [10, 21]","Growth inhibition rate (%) Barnyardgrass [11, 21]",Growth inhibition rate (%) Corn (corn (Zea mays L.) [12]; [21]),"Growth inhibition rate (%) Crabgrass [13, 21]","Growth inhibition rate (%) Green foxtail [14, 21]","Growth inhibition rate (%) Prickly sida [15, 21]","Growth inhibition rate (%) Redroot pigweed [16, 21]",Growth inhibition rate (%) Rice (rice (Oryza sativa L.) [17]; [21]),"Growth inhibition rate (%) Soybean [18, 21]","Growth inhibition rate (%) Velvetleaf [19, 21]","Growth inhibition rate (%) Wheat [20, 21]",further results
Cc1ccc(Oc2nc3ccc(F)cc3s2)cc1-c1c(O)c(C)nn(C)c1=O [Compound 2-155],78%,10%,40%,60%,10%,0%,0%,0%,25%,0%,85%,0%,83%,88%,0%,0%,70%,0%,0%,0%,
Cc1ccc(Oc2cnc(C(F)(F)F)cn2)cc1-c1c(O)c(C)nn(C)c1=O [Compound 2-194],85%,60%,90%,90%,35%,0%,0%,10%,0%,10%,95%,40%,83%,99%,0%,0%,30%,0%,0%,0%,
CCc1ccc(Oc2ncc(C(F)(F)F)cc2Cl)cc1-c1c(O)c(C)nn(C)c1=O [1-3],100%,99%,99%,100%,98%,0%,75%,15%,15%,98%,100%,90%,100%,100%,0%,0%,80%,0%,0%,35%,
CCc1nn(C)c(=O)c(-c2cc(Oc3nc4ccc(Cl)cc4o3)ccc2C)c1O [Compound 2-89],95%,30%,65%,93%,20%,0%,10%,20%,0%,0%,95%,0%,30%,50%,0%,0%,30%,0%,0%,0%,
CC(=O)Oc1c(C)nn(C)c(=O)c1-c1cc(Oc2cnc3ccccc3c2)ccc1C [Compound 2-146],,,,,,,,,,,,,,,,,,,,,"Growth inhibition rate (%) Barnyardgrass [1, 22]: 99%; Growth inhibition rate (%) Corn (corn (Zea mays L.) [2]; [22]): 85%; Growth inhibition rate (%) Crabgrass [3, 22]: 95%; Growth inhibition rate (%) Green foxtail [4, 22]: 95%; Growth inhibition rate (%) Italian ryegrass [5, 22]: 20%; Growth inhibition rate (%) Redroot pigweed [6, 22]: 0%; Growth inhibition rate (%) Rice (rice (Oryza sativa L.) [7]; [22]): 75%; Growth inhibition rate (%) Soybean [8, 22]: 10%; Growth inhibition rate (%) Wheat [9, 22]: 50%; Growth inhibition rate (%) Wild oat [10, 22]: 80%; Growth inhibition rate (%) Barnyardgrass [11, 22]: 100%; Growth inhibition rate (%) Corn (corn (Zea mays L.) [12]; [22]): 20%; Growth inhibition rate (%) Crabgrass [13, 22]: 100%; Growth inhibition rate (%) Green foxtail [14, 22]: 100%; Growth inhibition rate (%) Prickly sida [15, 22]: 0%; Growth inhibition rate (%) Redroot pigweed [16, 22]: 0%; Growth inhibition rate (%) Rice (rice (Oryza sativa L.) [17]; [22]): 85%; Growth inhibition rate (%) Soybean [18, 22]: 0%; Growth inhibition rate (%) Velvetleaf [19, 22]: 50%; Growth inhibition rate (%) Wheat [20, 22]: 0%"
Cc1ccc(Oc2cc(C(F)(F)F)c(C(F)(F)F)cn2)cc1-c1c(O)c(C)nn(C)c1=O [Compound 2-93],100%,95%,99%,100%,88%,20%,0%,10%,0%,30%,100%,0%,99%,99%,0%,0%,0%,0%,0%,0%,
CCOC(=O)Oc1c(C)nn(C)c(=O)c1-c1cc(Oc2ncc(C(F)(F)F)cc2Cl)ccc1C [1-41],100%,98%,99%,100%,100%,10%,80%,0%,98%,99%,100%,20%,100%,100%,0%,0%,0%,0%,0%,0%,
CCn1ncc(O)c(-c2cc(Oc3ncc(C(F)(F)F)cc3Cl)ccc2C)c1=O [1-157],100%,100%,100%,100%,99%,0%,80%,20%,93%,100%,100%,0%,99%,100%,0%,0%,40%,30%,0%,0%,
Cc1ccc(Oc2nc3ccc(Br)cc3o2)cc1-c1c(O)cnn(C)c1=O [Compound 2-181],100%,70%,99%,100%,93%,0%,10%,0%,35%,83%,90%,0%,0%,40%,0%,0%,20%,0%,0%,0%,
